Patent US20250115669A1, “FGFR1/KLB Targeting Agonistic Antigen-Binding Proteins and Conjugates Thereof with GLP-1R Agonistic Peptides” (SANOFI, priority 2020, published 2025)
Values belong to the compound of their own block, whether it stands above or below them. Peptide text beside a SMILES is read from it.

What was measured:
[1] = target: T1, human glucagon (GCG) receptor (Homo sapiens, UniProt P47871); assay: HTRF cAMP assay in HEK-293 cells expressing human glucagon receptor; format: cell-based; conditions: HEK-293 cells; read-out: HTRF cAMP EC50 Human GCGR
T1 construct: expressed in transfected cells; host or cells: PSC-HEK-293
T1 sequence (P47871 26-477): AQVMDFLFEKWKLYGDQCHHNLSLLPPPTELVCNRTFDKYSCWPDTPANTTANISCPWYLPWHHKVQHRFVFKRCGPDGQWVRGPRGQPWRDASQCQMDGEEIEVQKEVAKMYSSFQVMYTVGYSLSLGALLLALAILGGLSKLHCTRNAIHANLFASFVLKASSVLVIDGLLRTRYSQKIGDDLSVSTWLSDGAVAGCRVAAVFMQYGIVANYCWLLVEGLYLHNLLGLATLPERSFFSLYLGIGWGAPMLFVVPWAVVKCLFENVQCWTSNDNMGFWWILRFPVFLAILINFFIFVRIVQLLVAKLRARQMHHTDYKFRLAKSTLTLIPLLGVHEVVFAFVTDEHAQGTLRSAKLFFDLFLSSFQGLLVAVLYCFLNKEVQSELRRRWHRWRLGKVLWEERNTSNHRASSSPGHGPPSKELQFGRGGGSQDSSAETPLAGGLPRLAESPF
Method: (§1) Each vial contained 1.8 ml cells. The vials were slowly frozen to −80° C. in isopropanol, and then transferred in liquid nitrogen for storage.
(§2) Cells were resuspended in assay buffer (cell buffer plus 2 mM IBMX) and adjusted to a cell density of 1 million cells/ml.
(§3) For measurement of cAMP generation, 5 μl cells (final 5000 cells/well) and 5 μl of test compound were added to a 384-well plate, followed by incubation for 30 min at room temperature.
(§4) The cAMP generated was determined using a kit from Cisbio Corp. based on HTRF (Homogenous Time Resolved Fluorescence). The cAMP assay was performed according to manufacturer's instructions (Cisbio).

human GIP receptor = target: T2, human GIP receptor (Homo sapiens, UniProt P48546); assay: HTRF cAMP assay in HEK-293 cells expressing human GIP receptor; format: cell-based; conditions: HEK-293 cells; read-out: HTRF cAMP EC50 Human GIPR
T2 construct: expressed in transfected cells; host or cells: PSC-HEK-293
T2 sequence (P48546 22-466): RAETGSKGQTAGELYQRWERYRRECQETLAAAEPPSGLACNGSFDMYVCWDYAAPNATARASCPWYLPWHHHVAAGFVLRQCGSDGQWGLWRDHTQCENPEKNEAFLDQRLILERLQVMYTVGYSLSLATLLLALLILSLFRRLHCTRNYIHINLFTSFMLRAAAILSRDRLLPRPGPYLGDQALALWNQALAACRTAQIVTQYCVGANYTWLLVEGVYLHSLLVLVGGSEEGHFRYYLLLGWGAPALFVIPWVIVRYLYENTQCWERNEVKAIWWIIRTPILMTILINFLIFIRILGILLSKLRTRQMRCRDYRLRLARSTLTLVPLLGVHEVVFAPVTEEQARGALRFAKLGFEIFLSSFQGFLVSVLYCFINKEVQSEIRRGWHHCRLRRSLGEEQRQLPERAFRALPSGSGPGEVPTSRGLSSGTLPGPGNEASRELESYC
Method: as §1, §2, §3, §4

[2] = SAR16 (16H7) standalone and in combination with dulaglutide in DIO NASH cynomolgus monkeys; format: in vivo, Cynomolgus monkey (Macaca fascicularis)
Method: Both were tested as single administration and in combination of both in the most relevant animal model that reflects the intended human population. Thus, the pharmacokinetic and pharmacodynamics of varying doses of the compounds were explored in the high-fat diet-induced obese and insulin resistance cynomolgus monkey model with diagnosed non-alcoholic steatohepatitis (NASH), mimicking the adult human NASH insulin resistance phenotype.
Cynomolgus monkey (Macaca fascicularis) was selected as the test species of choice for more meaningful results that were translatable to humans. More than 50 male monkeys were trained to identify 40 HFD induced obese NASH monkeys for the study.
There was a run-in period during which monkeys were injected subcutaneously with vehicle every third day. Food intake (calculated as TEI) and water intake were measured daily along with twice-weekly body weight evaluation and baseline value determination for metabolic biomarkers, safety biomarkers, IV glucose tolerance test (IVGTT), liver biopsy for gene expression analysis, and profile for glucose, insulin, and plasma lipids.
For the dosing period 40 trained monkeys (n=10 per group) were selected and stratified for body weight, fasting plasma glucose (FPG), and fasting plasma insulin (FPI) and insulin response from baseline during the IVGTT. All treatments were administered subcutaneously for […]. The dosing period was designed as a four-arm, dose-ramping study, and monkeys were treated with either vehicle, SAR10, SAR16, or a combination of both SAR10 and SAR16.
The SAR10-treated monkeys were dosed every 3rd day at 60 μg/kg initiated by dose ramping (3 dose steps, week 1: 20 μg/kg, week 2: 40 μg/kg, week 3 to runout: 60 μg/kg). The SAR16-treated monkeys were dosed at 1 mg/kg on day +1, 3 mg/kg on day +16, and then repeat maintenance dose of 3 mg/kg on day +46. The Combo-treated monkey were dosed with both SAR10 and SAR16 as the same pattern of the SAR10 and SAR16 treated monkeys.
Other parameters were also measured during the study, including food intake, body fat, plasma ketone bodies, as well as blood glucose control (glucose profile, fed, fasting plasma glucose and during ivGTT). One group received the vehicle. The compounds were administered subcutaneously (SC) (12 weeks “evaluation phase” plus run-out) to obese and NASH male cynomolgus macaques (Macaca fascicularis).
The SAR10-treated monkeys were dosed every 3rd day at 60 μg/kg initiated by dose ramping (3 dose steps, week 1: 20 μg/kg, week 2: 40 μg/kg, week 3 to runout: 60 μg/kg). The SAR16-treated monkeys were dosed at 1 mg/kg on day +1, 3 mg/kg on day +16, and then repeat maintenance dose of 3 mg/kg on day +46. The Combo-treated monkey were dosed with both SAR10 and SAR16 at the same pattern of the SAR10 and SAR16 treated monkeys.

[3] = compared to the vehicle treated group
[4] = day +76 compared to baseline (day −27)

Compound: CC[C@H](C)[C@H](NC(=O)[C@H](Cc1ccccc1)NC(=O)[C@H](CCC(=O)O)NC(=O)[C@H](Cc1c[nH]cn1)NC(=O)[C@@H](NC(=O)[C@H](C)NC(=O)[C@H](CCCNC(=N)N)NC(=O)[C@H](CCCCN)NC(=O)[C@H](CCC(=O)O)NC(=O)[C@H](CC(C)C)NC(=O)[C@H](CC(C)C)NC(=O)[C@H](CCCCN)NC(=O)[C@H](CO)NC(=O)[C@H](CC(C)C)NC(=O)[C@H](CC(=O)O)NC(=O)[C@H](CO)NC(=O)[C@@H](NC(=O)[C@H](Cc1ccccc1)NC(=O)[C@@H](NC(=O)CNC(=O)[C@H](CCC(=O)O)NC(=O)CNC(=O)[C@@H](N)Cc1c[nH]cn1)[C@@H](C)O)[C@@H](C)O)C(C)C)C(=O)N[C@@H](CCC(=O)O)C(=O)N[C@@H](Cc1c[nH]c2ccccc12)C(=O)N[C@@H](CC(C)C)C(=O)N[C@@H](CCCCN)C(=O)N[C@@H](C)C(=O)NCC(=O)NCC(=O)N1CCC[C@H]1C(=O)N[C@@H](CO)C(=O)N[C@@H](CO)C(=O)NCC(=O)N[C@@H](CCCCN)C(=O)N1CCC[C@H]1C(=O)N1CCC[C@H]1C(=O)N1CCC[C@H]1C(=O)N[C@@H](CCCCN)C(N)=O [Ab P029] (H-HGEGTFTSDLSKLLEKRAVHEFIEWLKAGGPSSGKPPPK-NH2; N-terminus assumed)
- EC50 [1]: > 10 nM
- EC50 (human GIP receptor): 1.37 nM

Compound: CC[C@H](C)[C@H](NC(=O)[C@H](Cc1ccccc1)NC(=O)[C@H](CCC(=O)O)NC(=O)[C@H](Cc1c[nH]cn1)NC(=O)[C@H](CCC(N)=O)NC(=O)[C@H](C)NC(=O)[C@H](CCCNC(=N)N)NC(=O)[C@H](CCCCN)NC(=O)[C@H](CCC(=O)O)NC(=O)[C@H](CC(C)C)NC(=O)[C@H](CC(C)C)NC(=O)[C@H](CCCCN)NC(=O)[C@H](CO)NC(=O)[C@H](CC(C)C)NC(=O)[C@H](CC(=O)O)NC(=O)[C@H](CO)NC(=O)[C@@H](NC(=O)[C@H](Cc1ccccc1)NC(=O)[C@@H](NC(=O)CNC(=O)[C@H](CCC(=O)O)NC(=O)CNC(=O)[C@@H](N)Cc1c[nH]cn1)[C@@H](C)O)[C@@H](C)O)C(=O)N[C@@H](CCC(=O)O)C(=O)N[C@@H](Cc1c[nH]c2ccccc12)C(=O)N[C@@H](CC(C)C)C(=O)N[C@@H](CCCCN)C(=O)N[C@@H](C)C(=O)NCC(=O)NCC(=O)N1CCC[C@H]1C(=O)N[C@@H](CO)C(=O)N[C@@H](CO)C(=O)NCC(=O)N[C@@H](CCCCN)C(=O)N1CCC[C@H]1C(=O)N1CCC[C@H]1C(=O)N1CCC[C@H]1C(=O)N[C@@H](CCCCN)C(N)=O [Ab P030] (H-HGEGTFTSDLSKLLEKRAQHEFIEWLKAGGPSSGKPPPK-NH2; N-terminus assumed)
- EC50 [1]: > 10 nM
- EC50 (human GIP receptor): 2.76 nM

Compound: dulaglutide [SAR10]
- body weight (in words) ([2]; DIO NASH cynomolgus monkeys): Significant reductions in body weight
- food intake ([2]; DIO NASH cynomolgus monkeys): Reduction of food intake
- fasting glucose and fed glucose levels (12:30 and 18:30) [2, 3]: No significant change
- ivGTT glucose AUC [2, 3]: significantly decreased
- ivGTT plasma insulin AUC [2, 3]: significant increase
- blood glucose levels, plasma profile [2, 4]: appreciable decreases
- insulin, plasma profile [2, 4]: decreased
- HDL levels, plasma profile ([2]; day +76 versus day −27): slightly increased
- T-ketones levels, plasma profile ([2]; day +76 versus day −27): quite stable
- TC and LDL levels, plasma profile ([2]; day +76 versus day −27): decreased
- TG values, plasma profile ([2]; day +76 versus day −27): quite stable
- liver fat fraction change (MRI) ([2]; measured on days +81/+82/+83/+84, DIO NASH cynomolgus monkeys): −25.2%
- NASH steatosis score ([2]; more monkeys improved compared to vehicle treated group): improved steatosis score

Further lines, results first:

- EC50 [1]: > 10 nM
- EC50 (human GIP receptor): 0.225 nM
Compound: CC[C@H](C)[C@H](NC(=O)[C@H](CC(C)C)NC(=O)[C@H](Cc1c[nH]c2ccccc12)NC(=O)[C@H](CCC(=O)O)NC(=O)[C@@H](NC(=O)[C@H](Cc1ccccc1)NC(=O)[C@H](CCC(=O)O)NC(=O)[C@H](Cc1c[nH]cn1)NC(=O)[C@@H](NC(=O)[C@H](C)NC(=O)[C@H](CCCNC(=N)N)NC(=O)[C@H](CCCCN)NC(=O)[C@H](CCC(=O)O)NC(=O)[C@H](CC(C)C)NC(=O)[C@H](CC(C)C)NC(=O)[C@H](CCCCN)NC(=O)[C@H](CO)NC(=O)[C@H](CC(C)C)NC(=O)[C@H](CC(=O)O)NC(=O)[C@H](CO)NC(=O)[C@@H](NC(=O)[C@H](Cc1ccccc1)NC(=O)[C@@H](NC(=O)CNC(=O)[C@H](CCC(=O)O)NC(=O)CNC(=O)[C@@H](N)Cc1c[nH]cn1)[C@@H](C)O)[C@@H](C)O)C(C)C)[C@@H](C)CC)C(=O)N[C@@H](C)C(=O)NCC(=O)NCC(=O)N1CCC[C@H]1C(=O)N[C@@H](CO)C(=O)N[C@@H](CO)C(=O)NCC(=O)N[C@@H](CCCCN)C(=O)N1CCC[C@H]1C(=O)N1CCC[C@H]1C(=O)N1CCC[C@H]1C(=O)N[C@@H](CCCCN)C(N)=O [Ab P027] (H-HGEGTFTSDLSKLLEKRAVHEFIEWLIAGGPSSGKPPPK-NH2; N-terminus assumed)

- EC50 [1]: > 10 nM
- EC50 (human GIP receptor): 0.39 nM
Compound: CC[C@H](C)[C@H](NC(=O)[C@H](CC(C)C)NC(=O)[C@H](Cc1c[nH]c2ccccc12)NC(=O)[C@H](CCC(=O)O)NC(=O)[C@@H](NC(=O)[C@H](Cc1ccccc1)NC(=O)[C@H](CCC(=O)O)NC(=O)[C@H](Cc1c[nH]cn1)NC(=O)[C@H](CCC(N)=O)NC(=O)[C@H](C)NC(=O)[C@H](CCCNC(=N)N)NC(=O)[C@H](CCCCN)NC(=O)[C@H](CCC(=O)O)NC(=O)[C@H](CC(C)C)NC(=O)[C@H](CC(C)C)NC(=O)[C@H](CCCCN)NC(=O)[C@H](CO)NC(=O)[C@H](CC(C)C)NC(=O)[C@H](CC(=O)O)NC(=O)[C@H](CO)NC(=O)[C@@H](NC(=O)[C@H](Cc1ccccc1)NC(=O)[C@@H](NC(=O)CNC(=O)[C@H](CCC(=O)O)NC(=O)CNC(=O)[C@@H](N)Cc1c[nH]cn1)[C@@H](C)O)[C@@H](C)O)[C@@H](C)CC)C(=O)N[C@@H](C)C(=O)NCC(=O)NCC(=O)N1CCC[C@H]1C(=O)N[C@@H](CO)C(=O)N[C@@H](CO)C(=O)NCC(=O)N[C@@H](CCCCN)C(=O)N1CCC[C@H]1C(=O)N1CCC[C@H]1C(=O)N1CCC[C@H]1C(=O)N[C@@H](CCCCN)C(N)=O [Ab P028] (H-HGEGTFTSDLSKLLEKRAQHEFIEWLIAGGPSSGKPPPK-NH2; N-terminus assumed)
